Results as given in patent publication US20230009323A1, “COMPOUNDS AND METHODS FOR THE TREATMENT OF CRYPTOSPORIDIOSIS” (The Broad Institute, Inc., priority 2019, published 2023).
Entries after “also recorded” stand apart in the source; their conditions may differ.

Tests used:
cytosolic PfcPheRS = conditions: previously reported; cited from earlier work
[1] = test system: C. parvum parental WT (Bunchgrass); experiment: In vitro drug susceptibility in HCT-8 cells, luminescence, parent strain; format: cell-based; conditions: Cryptosporidium parvum; 48 h, HCT-8, luciferase activity
Method: The in vitro drug susceptibility assay using transgenic parasites expressing Nluc was performed as described in Vinyak et al. Briefly, host intestinal epithelial adenocarcinoma (HCT-8) cells grown in 96-well plates were infected with purified transgenic Nluc-expressing oocysts (1,000 oocysts per well) and incubated with different concentrations of Compound 11 for 48 hours. Culture supernatant was discarded from the wells after 48 hours, and 200 μl of NanoGlo lysis buffer containing 1:50 of NanoGlo substrate (Promega) was added to the wells. Lysates were transferred to white 96-well plates and luminescence was measured on a Glomax luminescence reader (Promega). EC50 values were calculated in GraphPad Prism software v7.
Oocysts from the mutant (mut482V) and wild type (wtL482) transgenic lines were purified as well as the parent strain (Bunchgrass) used to generate the transgenics. Sporozoites were excised from these oocysts and used to infect 96 well format HCT-8 cultures to perform in vitro drug susceptibility assays. Cultures were incubated for 48 hours in the presence of varying concentrations of Compound 11 and parasite growth was measured by establishing whole well luciferase activity to calculate EC50 values for each strain.

C. parvum [2] = experiment: Asexual growth vs DMC1 sexual differentiation assay; format: cell-based, Cryptosporidium parvum
Method: The effect on expression of the meiotic recombination protein DMC1 was previously identified as a sexual stage-specific marker for C. parvum. The potency of Compound 11 for inhibiting asexual development during the first 48 h of infection was compared to its potency at inhibiting DMC1 expression when compound was added after 48 h of culture (the approximate timing of sexual differentiation). In addition to staining for parasites with FITC-Vicia villosa lectin and DNA with Hoechst as above, samples were stained for the presence of DMC1 with an anti-C. parvum DMC1 mouse monoclonal antibody (clone 1H10G7 (IgG2b, kappa) used as undiluted culture medium with a secondary Alexa Fluor 568 goat anti-mouse IgG antibody (Invitrogen) at 1:500 dilution. Cultures were performed in 384-well plates with the addition of amphotericin B (Sigma, catalog) to the culture medium at 0.1 to 0.5 μg·mL^−1 for these assays. Images were acquired as above, and analyzed using NIH ImageJ software.

[3] = target: recombinant C. hominis PheRS (ChPheRS) (Cryptosporidium hominis, UniProt A0A0S4TD72); experiment: C. hominis PheRS aminoacylation assay; format: biochemical; conditions: aminoacylation activity
Method: The protein sequences of C. hominis PheRS alpha (Chro.30378) and beta subunits (Chro.80385) were retrieved from the Crypto DB (https://cryptodb.org/cryptodb/). Genes were inserted to pETM 11 and pETM 20 vectors and both alpha and beta subunits were co-expressed in E. coli B834 competent cells. Recombinant proteins were expressed by growing cells at 37° C. to OD600 of 0.6-0.8, followed by induction with 0.6 mM isopropyl β-d-1-thiogalactopyranoside (IPTG). The cells were later harvested by centrifugation at 5,000×g and cell pellet suspended in a buffer containing 50 mM Tris-HCl (pH 8.8), 200 mM NaCl, 4 mM [3-mercaptoethanol, 10% (v/v) glycerol, 0.1 mg ml-1 lysozyme and 1 mM phenylmethylsulfonyl fluoride (PMSF)]. The bacterial cells were lysed using sonication and cleared by centrifugation at 20,000×g for 45 mins. […]

C. parvum [4] = experiment: NOD SCID gamma mouse model of established cryptosporidiosis, fecal oocyst shedding by qPCR; format: in vivo, NOD SCID gamma mice
From the text: FIG. 4A is a schematic of NOD SCID gamma (NSG) mouse model of established intestinal cryptosporidiosis. Intestinal C. parvum infection was established by oral gavage of ˜10^5 oocysts either 7 days (FIGS. 4B and C) or 14 days (FIG. 4D) prior to oral treatment with bicyclic azetidines, vehicle, or paromomycin (positive control). All data are the mean and SEM (n=4 mice per experimental group) of parasite shedding per mg of feces measured by qPCR with results for individual mice shown as superimposed data points. Data points for which no parasite DNA was detected are shown at the qPCR assay limit of detection (0.1 oocysts per mg feces).
NOD scid gamma mice (NOD.Cg-Prkdcscid Il2rgtmlWjl/Szj; Jackson Laboratory, Bar Harbor, Me.) (NSG) were used to model established Cryptosporidium infection. All NSG mouse studies were performed in compliance with animal care guidelines and with approval by the University of Vermont Institutional Animal Care and Use Committee. Mice were acquired at three to four weeks of age, and acclimatized for one week prior to infection by oral gavage of ˜10^5 C. parvum Iowa isolate (Bunch Grass Farms) oocysts. They were then treated at the specified times and dosages with each compound dissolved in 0.5% hydroxypropylmethyl cellulose, 0.5% Tween 80 (v/v) plus 5% DMSO.
This cryptosporidiosis infection model used 3-4 week old, freshly weaned, NOD SCID gamma mice orally infected with C. parvum oocysts (˜1×10^5). The infection was monitored by qPCR of feces with primers specific for C. parvum and data are shown as number of oocysts milligram^−1 of feces. Six days following infection and upon confirmation of parasite shedding by qPCR, the three compounds, negative and positive control were orally administered at 50 mg·kg^−1 (body weight) every 24 h for 4 days. (FIGS. 4A-D). […] We then performed a dose-ranging study with Compound 11 using the same immunocompromised mouse model and dosing regimens of 5, 20 and 40 mg·kg^−1 every 24 h for 4 days or 10 mg·kg^−1 every 24 h for 7 days. Mice were monitored for an additional 14 days for relapse of infection.

In the case of `COc1ccc(NC(=O)N2CCCCN3[C@H](CN(C)C)[C@H](c4ccc(C#Cc5ccccc5)cc4)[C@@H]3C2)cc1` [Compound 11, (8R,9S,10S)-10-((dimethylamino)methyl)-N-(4-methoxyphenyl)-9-(4-(phenylethynyl)phenyl)-1,6-diazabicyclo[6.2.0]decane-6-carboxamide], the IC50 (cytosolic PfcPheRS) is given as 23 nM, the EC50 [1] is given as 29 nM and the “potency on asexual growth (0-48 h) vs DMC1 expression (48-72 h)” value (C. parvum [2]) is given as “approximately equipotent”. The IC50 [3] was 60 nM, the “oocyst shedding at follow-up for relapse” value (C. parvum [4]; 10 mg/kg every 24 h for 7 days, monitored an additional 14 days) was “no oocyst shedding was observed” and the “log reduction in oocysts·mg^−1 stool” value (C. parvum [4]; oral, 50 mg/kg every 24 h for 4 days) was roughly 3 log. The “reduction in oocyst shedding (oocysts per mg feces)” value (C. parvum [4]; oral, 50 mg/kg every 24 h for 4 days, 50 mg/kg) was “significant reduction in oocyst shedding; also recorded: greatest reduction in oocysts”.
